# Values of other authors in patent publication US12150927B2, “Use of cannabidiolic acid in the treatment of autism spectrum disorder and associated disorders” (GW Research Limited, priority 2016, dated 2024).
# Conditions: background statement; cited from earlier work
smiles,measurement,value
Cc1c(C(=O)NN2CCCCC2)nn(-c2ccc(Cl)cc2Cl)c1-c1ccc(Cl)cc1 [rimonabant],side effects,serious side effects such as suicide ideation
